#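 Values below derive from 48-hour exposures of cells grown in 96-well plates, with endpoints linearly interpolated between the two concentrations bracketing the appropriate inhibition level. Abbreviation: GI50, concentration required for 50% inhibition of growth. TGI is the concentration that stops growth completely.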
# What was measured:
# Experiment in all cases: inhibition of tumour cell growth, NCI panel, 48 h
# HOP-92 NSCLC = test system: HOP-92 NSCLC
# UACC-257 melanoma = test system: UACC-257 melanoma
# HOP-62 NSCLC = test system: HOP-62 NSCLC
# CCRF-CEM leukemia = test system: CCRF-CEM leukemia
# RPMI-8226 leukemia = test system: RPMI-8226 leukemia
# BT-549 breast = test system: BT-549 breast
# SF-268 CNS = test system: SF-268 CNS
# NCI/ADR-RES ovarian = test system: NCI/ADR-RES ovarian
# OVCAR-8 ovarian = test system: OVCAR-8 ovarian
# ACHN renal = test system: ACHN renal
# 786-0 renal = test system: 786-0 renal
# M14 melanoma = test system: M14 melanoma
# SN12C renal = test system: SN12C renal
# MDA-MB-435 = test system: MDA-MB-435
# NCI-H522 lung = test system: NCI-H522 lung
# K-562 leukemia = test system: K-562 leukemia
# CAKI-1 renal = test system: CAKI-1 renal
# T-47D breast = test system: T-47D breast
# HT29 colon = test system: HT29 colon
# UACC-62 melanoma = test system: UACC-62 melanoma
# NCI-H226 lung = test system: NCI-H226 lung
# SF-295 CNS = test system: SF-295 CNS
# SNB-75 CNS = test system: SNB-75 CNS
# SW-620 colon = test system: SW-620 colon
# MOLT-4 leukemia = test system: MOLT-4 leukemia
# SK-MEL-2 melanoma = test system: SK-MEL-2 melanoma
# SK-MEL-5 melanoma = test system: SK-MEL-5 melanoma
# COLO 205 colon = test system: COLO 205 colon
# HCT-116 colon = test system: HCT-116 colon
# IGROV1 ovarian = test system: IGROV1 ovarian
# DU-145 prostate = test system: DU-145 prostate
# OVCAR-4 ovarian = test system: OVCAR-4 ovarian
# A549 NSCLC = test system: A549 NSCLC
# MCF7 breast = test system: MCF7 breast
# TK-10 renal = test system: TK-10 renal
# PC-3 prostate = test system: PC-3 prostate
# HL-60(TB) leukemia = test system: HL-60(TB) leukemia
# MALME-3M melanoma = test system: MALME-3M melanoma
# SNB-19 CNS = test system: SNB-19 CNS
# MDA-MB-231 breast = test system: MDA-MB-231 breast
# NCI-H23 lung = test system: NCI-H23 lung
# NCI-H460 lung = test system: NCI-H460 lung
# HS 578T breast = test system: HS 578T breast
# OVCAR-5 ovarian = test system: OVCAR-5 ovarian
# A498 renal = test system: A498 renal
# SK-MEL-28 melanoma = test system: SK-MEL-28 melanoma
# SF-539 CNS = test system: SF-539 CNS
# RXF 393 renal = test system: RXF 393 renal
# U251 CNS = test system: U251 CNS
# OVCAR-3 ovarian = test system: OVCAR-3 ovarian
# HCC-2998 colon = test system: HCC-2998 colon
# KM12 colon = test system: KM12 colon
# HCT-15 colon = test system: HCT-15 colon
# UO-31 renal = test system: UO-31 renal
# SR leukemia = test system: SR leukemia
# SK-OV-3 ovarian = test system: SK-OV-3 ovarian
# EKVX NSCLC = test system: EKVX NSCLC
# LOX IMVI melanoma = test system: LOX IMVI melanoma
compound,measurement,setting,value
CCN(CC)Cc1cc(Nc2c3ccccc3nc3c4ccccc4n(C)c23)cc(CN(CC)CC)c1O,TGI,HOP-92 NSCLC,17.2 µM
same,TGI,UACC-257 melanoma,7.07 µM
same,TGI,HOP-62 NSCLC,20.4 µM
same,TGI,CCRF-CEM leukemia,14.2 µM
same,TGI,RPMI-8226 leukemia,> 100 µM
same,TGI,BT-549 breast,11.1 µM
same,TGI,SF-268 CNS,28.8 µM
same,TGI,NCI/ADR-RES ovarian,8.89 µM
same,TGI,OVCAR-8 ovarian,20.8 µM
same,TGI,ACHN renal,13.8 µM
same,TGI,786-0 renal,14.9 µM
same,TGI,M14 melanoma,3.37 µM
same,TGI,SN12C renal,20.4 µM
same,TGI,MDA-MB-435,10.2 µM
same,TGI,NCI-H522 lung,4.77 µM
same,TGI,K-562 leukemia,> 35 µM
same,TGI,CAKI-1 renal,29.2 µM
same,TGI,T-47D breast,15.7 µM
same,TGI,HT29 colon,11.8 µM
same,TGI,UACC-62 melanoma,10.4 µM
same,TGI,NCI-H226 lung,18.4 µM
same,TGI,SF-295 CNS,17.6 µM
same,TGI,SNB-75 CNS,25.2 µM
same,TGI,SW-620 colon,13.3 µM
same,TGI,MOLT-4 leukemia,> 33.3 µM
same,TGI,SK-MEL-2 melanoma,7.6 µM
same,TGI,SK-MEL-5 melanoma,3.72 µM
same,TGI,COLO 205 colon,10.8 µM
same,TGI,HCT-116 colon,11 µM
same,TGI,IGROV1 ovarian,24.6 µM
same,TGI,DU-145 prostate,23.3 µM
same,TGI,OVCAR-4 ovarian,18 µM
same,TGI,A549 NSCLC,31.9 µM
same,TGI,MCF7 breast,19.3 µM
same,TGI,TK-10 renal,28.1 µM
same,TGI,PC-3 prostate,11.8 µM
same,TGI,HL-60(TB) leukemia,12.2 µM
same,TGI,MALME-3M melanoma,5.25 µM
same,TGI,SNB-19 CNS,27.4 µM
same,TGI,MDA-MB-231 breast,13.4 µM
same,TGI,NCI-H23 lung,27 µM
same,TGI,NCI-H460 lung,16 µM
same,TGI,HS 578T breast,26.6 µM
same,TGI,OVCAR-5 ovarian,22.1 µM
same,TGI,A498 renal,18.4 µM
same,TGI,SK-MEL-28 melanoma,6.34 µM
same,TGI,SF-539 CNS,15.2 µM
same,TGI,RXF 393 renal,10.1 µM
same,TGI,U251 CNS,20.1 µM
same,TGI,OVCAR-3 ovarian,11.2 µM
same,TGI,HCC-2998 colon,19.2 µM
same,TGI,KM12 colon,20.7 µM
same,TGI,HCT-15 colon,14.4 µM
same,TGI,UO-31 renal,6.68 µM
same,TGI,SR leukemia,10.7 µM
same,TGI,SK-OV-3 ovarian,32.5 µM
same,TGI,EKVX NSCLC,21.4 µM
CCN1CCN(c2cc(C)nc(N(CCNc3ccnc4cc(Cl)ccc34)Cc3ccc4c(c3)OCO4)n2)CC1,GI50,HOP-92 NSCLC,1.21 µM
same,TGI,HOP-92 NSCLC,3.71 µM
same,GI50,UACC-257 melanoma,2.05 µM
same,TGI,UACC-257 melanoma,3.88 µM
same,GI50,HOP-62 NSCLC,1.94 µM
same,TGI,HOP-62 NSCLC,5.21 µM
same,GI50,CCRF-CEM leukemia,0.728 µM
same,TGI,CCRF-CEM leukemia,4.69 µM
same,GI50,RPMI-8226 leukemia,1.2 µM
same,TGI,RPMI-8226 leukemia,3.37 µM
same,GI50,BT-549 breast,1.54 µM
same,TGI,BT-549 breast,3.13 µM
same,GI50,SF-268 CNS,1.8 µM
same,TGI,SF-268 CNS,3.72 µM
same,GI50,NCI/ADR-RES ovarian,1.6 µM
same,TGI,NCI/ADR-RES ovarian,3.51 µM
same,GI50,OVCAR-8 ovarian,1.64 µM
same,TGI,OVCAR-8 ovarian,3.36 µM
same,GI50,ACHN renal,1.86 µM
same,TGI,ACHN renal,4.39 µM
same,GI50,786-0 renal,1.49 µM
same,TGI,786-0 renal,2.9 µM
same,GI50,M14 melanoma,1.49 µM
same,TGI,M14 melanoma,2.95 µM
same,GI50,SN12C renal,1.83 µM
same,TGI,SN12C renal,3.71 µM
same,GI50,MDA-MB-435,1.48 µM
same,TGI,MDA-MB-435,2.9 µM
same,GI50,NCI-H522 lung,1.58 µM
same,TGI,NCI-H522 lung,3.18 µM
same,GI50,K-562 leukemia,0.355 µM
same,TGI,K-562 leukemia,1.7 µM
same,GI50,T-47D breast,1.99 µM
same,TGI,T-47D breast,4.96 µM
same,GI50,HT29 colon,1.16 µM
same,TGI,HT29 colon,3.71 µM
same,GI50,UACC-62 melanoma,1.83 µM
same,TGI,UACC-62 melanoma,3.63 µM
same,GI50,LOX IMVI melanoma,1.5 µM
same,TGI,LOX IMVI melanoma,2.89 µM
same,GI50,NCI-H226 lung,2.43 µM
same,TGI,NCI-H226 lung,7.05 µM
same,GI50,SF-295 CNS,1.45 µM
same,TGI,SF-295 CNS,2.98 µM
same,GI50,SNB-75 CNS,1.33 µM
same,TGI,SNB-75 CNS,2.72 µM
same,GI50,SW-620 colon,1.58 µM
same,TGI,SW-620 colon,3.45 µM
same,GI50,MOLT-4 leukemia,0.728 µM
same,TGI,MOLT-4 leukemia,3.1 µM
same,GI50,SK-MEL-2 melanoma,1.63 µM
same,TGI,SK-MEL-2 melanoma,3.15 µM
same,GI50,SK-MEL-5 melanoma,1.56 µM
same,TGI,SK-MEL-5 melanoma,2.93 µM
same,GI50,COLO 205 colon,1.51 µM
same,TGI,COLO 205 colon,3.26 µM
same,GI50,HCT-116 colon,1.03 µM
same,TGI,HCT-116 colon,2.39 µM
same,GI50,IGROV1 ovarian,1.48 µM
same,TGI,IGROV1 ovarian,3.92 µM
same,GI50,DU-145 prostate,2.23 µM
same,TGI,DU-145 prostate,7.25 µM
same,GI50,OVCAR-4 ovarian,1.93 µM
same,TGI,OVCAR-4 ovarian,6.18 µM
same,GI50,A549 NSCLC,2.13 µM
same,TGI,A549 NSCLC,4.93 µM
same,GI50,MCF7 breast,1.19 µM
same,TGI,MCF7 breast,2.83 µM
same,GI50,PC-3 prostate,1.98 µM
same,TGI,PC-3 prostate,7 µM
same,GI50,HL-60(TB) leukemia,1.9 µM
same,TGI,HL-60(TB) leukemia,3.84 µM
same,GI50,MALME-3M melanoma,1.67 µM
same,TGI,MALME-3M melanoma,3.37 µM
same,GI50,SNB-19 CNS,2.67 µM
same,TGI,SNB-19 CNS,8.49 µM
same,GI50,MDA-MB-231 breast,1.37 µM
same,TGI,MDA-MB-231 breast,3 µM
same,GI50,NCI-H23 lung,1.88 µM
same,TGI,NCI-H23 lung,5.01 µM
same,GI50,NCI-H460 lung,1.77 µM
same,TGI,NCI-H460 lung,3.61 µM
same,GI50,HS 578T breast,1.79 µM
same,TGI,HS 578T breast,4.15 µM
same,GI50,OVCAR-5 ovarian,2.53 µM
same,TGI,OVCAR-5 ovarian,6.51 µM
same,GI50,A498 renal,1.5 µM
same,TGI,A498 renal,3.3 µM
same,GI50,SK-MEL-28 melanoma,1.72 µM
same,TGI,SK-MEL-28 melanoma,3.5 µM
same,GI50,SF-539 CNS,1.52 µM
same,TGI,SF-539 CNS,3.12 µM
same,GI50,RXF 393 renal,0.688 µM
same,TGI,RXF 393 renal,2.12 µM
same,GI50,U251 CNS,1.49 µM
same,TGI,U251 CNS,3.16 µM
same,GI50,OVCAR-3 ovarian,1.2 µM
same,TGI,OVCAR-3 ovarian,2.64 µM
same,GI50,HCC-2998 colon,2.09 µM
same,TGI,HCC-2998 colon,4.22 µM
same,GI50,KM12 colon,1.8 µM
same,TGI,KM12 colon,5.97 µM
same,GI50,HCT-15 colon,0.875 µM
same,TGI,HCT-15 colon,2.69 µM
same,GI50,UO-31 renal,1.36 µM
same,TGI,UO-31 renal,3.3 µM
same,GI50,SR leukemia,0.189 µM
same,TGI,SR leukemia,0.544 µM
same,GI50,SK-OV-3 ovarian,2.12 µM
same,TGI,SK-OV-3 ovarian,5.34 µM
same,GI50,EKVX NSCLC,2.33 µM
same,TGI,EKVX NSCLC,7.91 µM

# — PubChem BioAssay (NCI)
